# According to patent US11591366B2, “Macrocyclic compounds and methods of preventing or treating pain” (SOCPRA SCIENCES SANTÉ ET HUMAINES S.E.C., priority 2017, dated 2023):
# Tests used:
# hNTS1 (Gαq pathway) = biological target: T1, hNTS1 (Gαq pathway) (Homo sapiens, UniProt P30989); test: BRET biosensor assay, Gαq dissociation; assay type: cell-based
# T1 construct: expressed in transfected cells; host or cells: CHO-K1, transient transfection with PEI
# Description: CHO-K1 cells were cultured in DMEM-F12 supplemented with 10% FBS, 100 U/mL penicillin, 100 μg/mL streptomycin, and 20 mM HEPES at 37° C. in a humidified chamber at 5% CO2. Cells were seeded into T75 flasks at a density of 20 000 cells/cm^2; 24 h later, cells were transfected with plasmids coding for hNTS1-Green fluorescent protein 10(GFP10)/Rluc (Renilla Luciferase)II-β-arrestin 1 or hNTS1-GFP10/RlucII-β-arrestin2, or with hNTS1/Gαq-RlucII/Gβ1/IGFP10-Gγ1 or hNTS1/Gα13-RlucII/Gβ1/GFP10-Gγ1 using polyethylenimine (PEI). Cells were transferred into 96-well plates at a concentration of 50 000 cells/well 24 h after transfection and incubated at 37° C. overnight. […] After stimulation, coelenterazine 400A was added in each well to a final concentration of 5 μM and the plate was read using filter selected for BRET2 measurement (BRET2 High efficiency filter set, λemRlucII: 410±80 nm, λemGFP10: 515±40 nm) on a Mithras 2 plate reader (Berthold Technologies, Tennessee, USA). BRET2 ratio was determined as GFP10em/RlucIIem. […] EC50 (Effective Concentration 50) values were determined using the dose response-stimulation log(agonist) vs response (three parameters) and represent the mean±SEM of at least three separate experiments, each performed in triplicate.
# NTS1 is capable of activating several signaling pathways, thus the activation of Gαq, Gα13, β-arrestin 1 and β-arrestin 2 pathways was monitored. […]
# Sprague-Dawley rats [1] = test: Tail-flick test (acute pain); assay type: in vivo; conditions: rat
# Description: (§1) Experiments were performed with adult male Sprague-Dawley rats, weighing 225-300 g (Charles River laboratories, St-Constant, Canada). Rats were housed two per cage on Aspen shavings in a quiet room and kept on a 12 h light/dark cycle and allowed ad libitum access to food and water. The experimental procedures in this study were approved by the Animal Care Committee of Université de Sherbrooke (animal care protocol 035-13) and were in accordance with policies and directives of the Canadian Council on Animal Care.
# Acute pain was assessed using the tail-flick test (Tail-Flick Analgesia meter V2.00, Colombus Instruments, Columbus, Ohio, USA). Tail-flick test measures sensitivity to a high-intensity light beam focused on the rat tail. The tail-flick apparatus was set at a light intensity of 6 and a cutoff of 10 sec. The latency, in seconds, to flick the tail out of the path of the light beam corresponds to the measure of pain sensitivity or analgesia.
# Before testing, animals were individually acclimatized to manipulations and behavioral apparatus 5 min/day for three consecutive days. On the test day, latencies baseline measures were taken before drug injection to provide a mean baseline. […] The effects of compounds or saline on thermal nociception were assessed every 10 min for up to 60 min following i.t. administration.
# Tail-flick latencies were converted into the percent maximal possible effect (% MPE) at the time of maxima peak of analgesia. % MPE were calculated according to the following formula: % MPE=[(Test latency)−(Saline latency)]/[(Cutoff)−(Saline latency)]×100. Data are expressed as mean±SEM of 3-8 animals for each different compound.
# (§2) Data are expressed as mean±standard errors of the mean (SEM). All graphs and statistical analysis were performed using GraphPad Prism™ 7 (GraphPad software, La Jolla, Calif., USA). […] A difference in response was considered significant with p-values *p<0.05, **p<0.01, and ***p<0.001. […] Then, ED values were determined using the dose-response-stimulation log(agonist) vs response (three parameters).
# rats = test: Blood pressure (hypotension); assay type: in vivo, rat; conditions: 0.01 mg/kg
# Description: Mean, systolic and diastolic arterial blood pressure and a heart rate were measured through a catheter (PE 50 filled with heparinized saline) inserted in the right carotid artery and connected to a Micro-Med™ transducer (model TDX-300, USA) linked to a blood pressure Micro-Med™ analyzer (model BPA-100c). Another catheter (PE 10 filled with heparinized saline) was inserted in the left jugular vein for injection of test compounds at 0.01 mg/kg (volume 1 mL/kg, 5-10 s) or 0.9% saline. Blood pressure was recorded each second for up to 900 seconds following intravenous injection.
# Sprague-Dawley rats [2] = test: Body temperature (hypothermia); assay type: in vivo; conditions: rat; text says i.v., figure legend and method i.t.
# Description: Body temperature was measured using a thermistor probe inserted into the rectum of adult Sprague-Dawley rats. Prior to testing, animals were individually acclimatized to manipulations and thermistor probe 5 min/day for three consecutive days. On the test day, temperature was measured before (baseline) and each 10 min for up to 60 min following intrathecal drug administration of compounds. […] Changes in body temperature (Δ body temp) were determined from baseline for each time and each animal. Data represent the mean±SEM of 3-16 rats for each condition.
# as §2
# Plasma stability assay = assay type: in vitro ADME; conditions: rat plasma at 37° C.
# Description: Rat plasma was obtained by centrifugation of rat blood (13000 rpm, 5 min, 4° C.). […] Proteolytic degradation was quenched by adding 70 μL of acetonitrile/ethanol (1:1), 0.5% nicotinamide solution and vortexing. […] Data were analyzed using GraphPad Prism 7's one phase decay equation.
# Sprague-Dawley rats [3] = test: Formalin test (tonic pain); assay type: in vivo; conditions: rat, i.t., 30 μg/kg
# Description: as §1
# 5 min after intrathecal injection of compounds at 30 μg/kg, the rats received 50 μl of diluted 2% formaldehyde (i.e. 5% formalin; Bioshop, Burlington, Ontario) into the plantar surface of the right hind paw. […] Nociceptive behaviors were assessed using a weighted score as described previously. […] The weighted average pain intensity score ranging from 0 to 3 was then calculated by multiplying the time spent in each category by the category weight, summing these products, and dividing by the total time in a given time interval. The pain score was thus calculated from the following formula (1T1+2T2+3T3)/180 where T1, T2, and T3 are the durations (in seconds) spent in behavioral categories 1, 2, or 3, respectively, during each 180-sec block. […]
# Data are expressed as mean±standard errors of the mean (SEM). […]
# rNTS2 receptor = biological target: T2, rNTS2 receptor (Rattus norvegicus, UniProt Q63384); test: Competitive radioligand binding assay on the rNTS2 receptor; conditions: 1 μM macrocycle dose; read-out: NTS2 % displ at 1 μM (radiolabeled neurotensin displaced)
# T2 construct: expressed in transfected cells; host or cells: DRG-F11 cells, transient transfection, membranes
# T2 sequence (Q63384 1-416): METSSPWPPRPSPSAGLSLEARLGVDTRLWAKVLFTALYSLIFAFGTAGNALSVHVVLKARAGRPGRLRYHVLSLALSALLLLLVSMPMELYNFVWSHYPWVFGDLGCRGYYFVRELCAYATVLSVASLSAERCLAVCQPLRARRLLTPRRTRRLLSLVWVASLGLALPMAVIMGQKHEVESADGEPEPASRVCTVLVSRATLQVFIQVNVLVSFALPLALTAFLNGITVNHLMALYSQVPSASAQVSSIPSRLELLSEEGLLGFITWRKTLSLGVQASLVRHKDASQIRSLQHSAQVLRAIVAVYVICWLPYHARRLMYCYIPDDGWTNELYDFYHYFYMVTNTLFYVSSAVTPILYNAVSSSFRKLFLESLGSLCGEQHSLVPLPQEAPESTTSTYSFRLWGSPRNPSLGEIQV
# Description: DRG-F11 cells were cultured in DMEM supplemented with 10% FBS, 100 U/mL penicillin, 100 μg/mL streptomycin, and 20 mM HEPES.
# Membranes were prepared by scraping cells off the culture dish with 50 mM Tris ph 7.5 and centrifuged at 15,000 g for 5 min at 4° C. The pellet was resuspended in 10 mM Tris, 1 mM EDTA pH 7.5 and sonicated for 30 s prior to be centrifugated at 15,000 g for 30 min at 4° C. The pellet was then re-suspended in binding 9 buffer. […] All other steps in binding experiments were unchanged comparing to the one using the NTS1 receptor.
# [4] = biological target: T3, hNTS1 (β-arrestin 2 recruitment) (Homo sapiens, UniProt P30989); test: BRET biosensor assay, β-arrestin 2 recruitment; assay type: cell-based
# T3 construct: expressed in transfected cells; host or cells: CHO-K1, transient transfection with PEI
# T3 sequence (P30989 whole entry): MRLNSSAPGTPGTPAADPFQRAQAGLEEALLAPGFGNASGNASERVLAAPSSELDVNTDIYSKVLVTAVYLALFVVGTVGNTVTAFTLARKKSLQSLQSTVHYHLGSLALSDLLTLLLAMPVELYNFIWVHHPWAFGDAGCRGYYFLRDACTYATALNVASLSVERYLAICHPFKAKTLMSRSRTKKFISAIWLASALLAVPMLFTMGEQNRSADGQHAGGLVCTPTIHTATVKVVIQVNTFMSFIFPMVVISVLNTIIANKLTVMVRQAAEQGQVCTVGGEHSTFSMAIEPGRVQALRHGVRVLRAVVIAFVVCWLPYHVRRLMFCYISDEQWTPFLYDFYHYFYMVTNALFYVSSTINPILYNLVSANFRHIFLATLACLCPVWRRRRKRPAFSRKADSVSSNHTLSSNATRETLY
# T3 sequence (P32121 whole entry partner): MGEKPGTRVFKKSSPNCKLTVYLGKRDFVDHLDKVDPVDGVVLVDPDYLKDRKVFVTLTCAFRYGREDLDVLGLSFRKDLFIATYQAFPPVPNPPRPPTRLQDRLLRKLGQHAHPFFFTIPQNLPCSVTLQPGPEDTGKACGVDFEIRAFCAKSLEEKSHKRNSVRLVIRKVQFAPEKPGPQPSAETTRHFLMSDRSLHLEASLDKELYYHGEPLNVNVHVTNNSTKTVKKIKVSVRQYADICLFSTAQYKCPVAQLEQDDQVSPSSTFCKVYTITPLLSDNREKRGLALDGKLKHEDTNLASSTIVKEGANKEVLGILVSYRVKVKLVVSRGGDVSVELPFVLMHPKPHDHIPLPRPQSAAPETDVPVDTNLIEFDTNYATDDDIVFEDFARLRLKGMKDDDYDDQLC
# Description: CHO-K1 cells were cultured in DMEM-F12 supplemented with 10% FBS, 100 U/mL penicillin, 100 μg/mL streptomycin, and 20 mM HEPES at 37° C. in a humidified chamber at 5% CO2. Cells were seeded into T75 flasks at a density of 20 000 cells/cm^2; 24 h later, cells were transfected with plasmids coding for hNTS1-Green fluorescent protein 10(GFP10)/Rluc (Renilla Luciferase)II-β-arrestin 1 or hNTS1-GFP10/RlucII-β-arrestin2, or with hNTS1/Gαq-RlucII/Gβ1/IGFP10-Gγ1 or hNTS1/Gα13-RlucII/Gβ1/GFP10-Gγ1 using polyethylenimine (PEI). Cells were transferred into 96-well plates at a concentration of 50 000 cells/well 24 h after transfection and incubated at 37° C. overnight. They were then washed with PBS and 90 μL HBSS was added in each well. […] After stimulation, coelenterazine 400A was added in each well to a final concentration of 5 μM and the plate was read using filter selected for BRET2 measurement (BRET2 High efficiency filter set, λemRlucII: 410±80 nm, λemGFP10: 515±40 nm) on a Mithras 2 plate reader (Berthold Technologies, Tennessee, USA). BRET2 ratio was determined as GFP10em/RlucIIem. […] EC50 (Effective Concentration 50) values were determined using the dose response-stimulation log(agonist) vs response (three parameters) and represent the mean±SEM of at least three separate experiments, each performed in triplicate.
# NTS1 is capable of activating several signaling pathways, thus the activation of Gαq, Gα13, β-arrestin 1 and β-arrestin 2 pathways was monitored. The ability of compounds of the invention to activate the NTS1 receptor was assessed using Bioluminescence Resonance Energy Transfer (BRET)-based biosensors, reporting the dissociation of G proteins (Table III, column EC50 Gq) and the recruitment of β-arrestins to the receptor (Table III, column EC50 βarr).
# T1 sequence (P30989 whole entry): as the sequence (P30989 whole entry) above
smiles,measurement,setting,value
"CCC(C)[C@H](NC(=O)[C@@H]1Cc2ccc(O)c(c2)CC=CCNCCC[C@H](N)C(=O)N[C@@H](CCCCN)C(=O)N2CCC[C@H]2C(=O)N1)C(=O)N[C@@H](CC(C)C)C(=O)O (some centres unmarked) [Compound 7, c[Orn(All)KPY(All)]IL]",EC50,hNTS1 (Gαq pathway),3 ± 0.05 nM
same,"ED50, tail-flick latency (from AUC)",Sprague-Dawley rats [1]; i.t. injection,4.63 µg/kg
same,Maximal possible effect (MPE),"Sprague-Dawley rats [1]; i.t., 30 μg/kg, 10 min post-injection",50%
same,Dose at which the analgesic effect reached a plateau,"Sprague-Dawley rats [1]; i.t., tail-flick",around 10 μg/kg
same,Tail-flick latency versus saline/baseline,"Sprague-Dawley rats [1]; intrathecal, 30 μg/kg",sustainably increased
same,Hypotension (I.V.),rats,Triphasique
same,Arterial blood pressure response,"rats; rat, i.v.",triphasic
same,"Blood pressure drop, first phase","rats; rat, i.v.",about −25 mmHg
same,Blood pressure in phase 3,"rats; rat, i.v.",slowly returned towards baseline
same,"ED50, hypothermia (from AUC)",Sprague-Dawley rats [2],1.96 μ/kg
same,half-life at […],Plasma stability assay,30 min
same,Pain score during the inflammatory phase (AUC),Sprague-Dawley rats [3],significantly reduced
same,inhibition at 1 µM,rNTS2 receptor,66%
same,EC50,[4],3 ± 0.05 nM
